Numbered stars: 1 amine (or outer) side, 2 acyl side, 3 side chain; on linkers, the order of the positions; unused ones are H or OH. Bridge positions count the residues as written; N and C are the ends. Square brackets hold non-standard residues; d marks the D form. Peptide text beside a SMILES is read from it. X6 = CC(=O)Oc1ccc2c(c1)CN([*:1])[C@H](C(=O)[*:2])C2; Pyridine(2,6-diCH2) = c1cc(C[*:1])nc(C[*:2])c1; Trp(7-aza) = N[C@@H](Cc1c[nH]c2ncccc12)C(=O)O; X8 = O=C([C@H](Cc1ccc2[nH]ncc2c1)N[*:1])[*:2]; NMePhe(4-F) = CN[C@@H](Cc1ccc(F)cc1)C(=O)O; Phe(4-F) = N[C@@H](Cc1ccc(F)cc1)C(=O)O; X5 = O=C([C@H](Cc1cnco1)N[*:1])[*:2]; mXylylene = c1cc(C[*:1])cc(C[*:2])c1; pXylylene = c1cc(C[*:2])ccc1C[*:1]; Ala(cPr) = N[C@@H](CC1CC1)C(=O)O; 2Pal = N[C@@H](Cc1ccccn1)C(=O)O; 3Pal = N[C@@H](Cc1cccnc1)C(=O)O; 4Pal = N[C@@H](Cc1ccncc1)C(=O)O; Aad = N[C@@H](CCCC(=O)O)C(=O)O; Tle = CC(C)(C)[C@H](N)C(=O)O; S5 = C=CCCC[C@](C)(N)C(=O)O; Nva = CCC[C@H](N)C(=O)O; Aib = CC(C)(N)C(=O)O; Mpa = O=C(O)CCS
Assays:
[1] = molecular target: PCSK9 (Homo sapiens, UniProt Q8NBP7); test: PCSK9 Alexa FRET Standard assay (displacement of AlexaFluor647 tagged cyclic peptide Reagent A); format: binding; settings: 0.5 nM PCSK9, 20 nM AF cyclic peptide Reagent A
Method: A solution containing 1 nM biotinylated PCSK9+2.5 nM Lance Streptavidin Europium (Strep-Eu) was made in 50 mM HEPES pH 7.4, 0.15 M NaCl, 5 mM CaCl2), 0.01% BSA, and 0.01% Surfactant P20. A separate solution containing 40 nM of the AlexaFluor tagged cyclic peptide was made in the same buffer system. An Echo was used to transfer 0.750 ul of compound to an assay plate followed by the addition of 15 ul of PCSK9+Stept-Eu and 15 ul of AF peptide. The final assay volume was 30.750 ul containing 0.5 nM PCSK9, 1.25 nM Strep-Eu, and 20 nM AF cyclic peptide. The reaction was incubated at room temperature for at least two hours prior to fluorescence measurements using an Envision Multilabel Reader. IC50 values were determined by fitting data to a sigmoidal dose-response curve using nonlinear regression. Ki was then calculated from the IC50 and the KD of AF cyclic peptide. Counts (B-counts) of the europium-labeled PCSK9 were followed to observe if compounds were […]. A fall off of the B-counts likely indicated a false positive of inhibition. Data from this procedure was reported as “A=‘numerical value’ (nanomolar)”

[2] = molecular target: human PCSK9 / human LDLR EGFa domain interaction (Homo sapiens, UniProt Q8NBP7); test: TR-FRET assay of inhibition of the PCSK9-LDLR protein-protein interaction; format: binding; settings: 20 nM avitag-biotinylated human PCSK9, 20 nM his-tagged human LDLR EGFa domain, 2 hours, room temperature
Outline: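 Inhibition of PCSK9 binding to the LDLR EGFa domain, each protein at 20 nM, detected by TR-FRET using streptavidin and anti-His donor/acceptor labels (5 nM). Two-hour room-temperature incubation in calcium-containing HEPES buffer.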

human PCSK9 / human LDLR EGFa domain interaction, sequence (Q8NBP7 153-692): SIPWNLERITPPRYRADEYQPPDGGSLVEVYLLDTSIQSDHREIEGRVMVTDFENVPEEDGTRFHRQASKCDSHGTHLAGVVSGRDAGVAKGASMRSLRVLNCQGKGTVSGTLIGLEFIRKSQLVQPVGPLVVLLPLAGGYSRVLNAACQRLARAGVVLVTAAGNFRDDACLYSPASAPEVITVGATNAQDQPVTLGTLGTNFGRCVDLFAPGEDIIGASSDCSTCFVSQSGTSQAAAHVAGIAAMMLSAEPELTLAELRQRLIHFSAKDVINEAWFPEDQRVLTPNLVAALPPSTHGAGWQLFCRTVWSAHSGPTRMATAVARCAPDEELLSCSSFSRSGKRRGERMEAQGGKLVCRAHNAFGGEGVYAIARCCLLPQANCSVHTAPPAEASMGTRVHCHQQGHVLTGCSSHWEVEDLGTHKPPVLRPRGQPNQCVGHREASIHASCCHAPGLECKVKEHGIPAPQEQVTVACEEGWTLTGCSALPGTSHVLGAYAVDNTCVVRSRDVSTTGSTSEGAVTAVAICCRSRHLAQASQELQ
human PCSK9 / human LDLR EGFa domain interaction, sequence (Q8NBP7 31-152 partner limits assumed): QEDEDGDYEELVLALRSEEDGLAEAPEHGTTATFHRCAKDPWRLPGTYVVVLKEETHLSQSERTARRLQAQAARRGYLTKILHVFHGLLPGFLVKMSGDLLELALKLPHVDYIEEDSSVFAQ
PCSK9, sequence (Q8NBP7 153-692): as the sequence (Q8NBP7 153-692) above

IC50 [1]	IC50 [2]	SMILES
1 to 21 µM	100 to 1000 nM	CCC[C@@H]1NC(=O)[C@H](Cc2c[nH]c3ncccc23)NC(=O)[C@H]([C@@H](C)O)NC(=O)[C@H](Cc2cnco2)NC(=O)[C@H](Cc2ccc(O)cc2)NC(=O)[C@H](C(C)(C)C)NC(=O)CCSCc2cccc(c2)CSC[C@@H](C(N)=O)NC(=O)[C@H]([C@@H](C)O)NC(=O)[C@H](CCC)NC(=O)[C@H](Cc2ccc(O)cc2)NC(=O)[C@H](CCC(=O)O)NC1=O [Compound 106] ([Mpa][Tle]Y[X5]T[Trp(7-aza)][Nva]EY[Nva]TC-NH2; linker 1-12 via mXylylene)
50 to 100 µM		CCC[C@@H]1NC(=O)[C@H](Cc2ccc(O)cc2)NC(=O)[C@H](CCC(=O)O)NC(=O)[C@H](Cc2c[nH]c3ncccc23)NC(=O)[C@H]([C@@H](C)O)NC(=O)[C@H](Cc2c[nH]cn2)NC(=O)[C@H](Cc2ccc(O)cc2)NC(=O)[C@H](C(C)(C)C)NC(=O)CCSCc2cccc(c2)CSC[C@@H](C(N)=O)NC(=O)[C@H]([C@@H](C)O)NC1=O [Compound 248] ([Mpa][Tle]YHT[Trp(7-aza)]EY[Nva]TC-NH2; linker 1-11 via mXylylene)
1 to 21 µM		CCC[C@@H]1NC(=O)[C@H](Cc2c[nH]c3ncccc23)NC(=O)[C@H]([C@@H](C)O)NC(=O)[C@H](Cc2c[nH]cn2)NC(=O)[C@H](Cc2ccc(O)cc2)NC(=O)[C@H](C(C)(C)C)NC(=O)CCSCc2cccc(c2)CSC[C@@H](C(N)=O)NC(=O)[C@H]([C@@H](C)O)NC(=O)[C@H](CCC)NC(=O)[C@H](Cc2ccccc2)NC(=O)[C@H](CCC(=O)O)NC1=O [Compound 256] ([Mpa][Tle]YHT[Trp(7-aza)][Nva]EF[Nva]TC-NH2; linker 1-12 via mXylylene)
1 to 21 µM		CCC[C@@H]1NC(=O)[C@H](Cc2c[nH]c3ncccc23)NC(=O)[C@H]([C@@H](C)O)NC(=O)[C@H](Cc2c[nH]cn2)NC(=O)[C@H](Cc2ccc(O)cc2)NC(=O)[C@H](C(C)(C)C)NC(=O)CCSCc2cccc(c2)CSC[C@@H](C(N)=O)NC(=O)[C@H]([C@@H](C)O)NC(=O)[C@H](CC2CC2)NC(=O)[C@H](Cc2ccc(O)cc2)NC(=O)[C@H](CCC(=O)O)NC1=O [Compound 262] ([Mpa][Tle]YHT[Trp(7-aza)][Nva]EY[Ala(cPr)]TC-NH2; linker 1-12 via mXylylene)
1 to 21 µM		CCC[C@@H]1NC(=O)[C@H](Cc2c[nH]c3ncccc23)NC(=O)[C@H]([C@@H](C)O)NC(=O)[C@H](Cc2c[nH]cn2)NC(=O)[C@H](Cc2ccc(O)cc2)NC(=O)[C@H](C(C)(C)C)NC(=O)CCSCc2cccc(c2)CSC[C@@H](C(N)=O)NC(=O)[C@H]([C@@H](C)O)NC(=O)[C@H](CCC)NC(=O)[C@H](Cc2ccc(F)cc2)NC(=O)[C@H](CCC(=O)O)NC1=O [Compound 266] ([Mpa][Tle]YHT[Trp(7-aza)][Nva]E[Phe(4-F)][Nva]TC-NH2; linker 1-12 via mXylylene)
50 to 100 µM		CCC[C@@H]1NC(=O)[C@H](Cc2c[nH]c3ncccc23)NC(=O)[C@H]([C@@H](C)O)NC(=O)[C@H](Cc2c[nH]cn2)NC(=O)[C@H](Cc2ccc(O)cc2)NC(=O)[C@H](C(C)(C)C)NC(=O)CCSCc2cccc(c2)CSC[C@@H](C(N)=O)NC(=O)[C@H]([C@@H](C)O)NC(=O)[C@H](CCC)NC(=O)[C@H](Cc2ccc(F)cc2)N(C)C(=O)[C@H](CCC(=O)O)NC1=O [Compound 267] ([Mpa][Tle]YHT[Trp(7-aza)][Nva]E[NMePhe(4-F)][Nva]TC-NH2; linker 1-12 via mXylylene)
0.1 to 1 µM		CCC[C@@H]1NC(=O)[C@H](Cc2ccc(O)cc2)NC(=O)[C@H](CCC(=O)O)NC(=O)C(C)(C)NC(=O)[C@H](Cc2c[nH]c3ncccc23)NC(=O)[C@H]([C@@H](C)O)NC(=O)[C@H](Cc2c[nH]cn2)NC(=O)[C@H](Cc2ccc(O)cc2)NC(=O)[C@H](C(C)(C)C)NC(=O)CCSCc2cccc(c2)CSC[C@@H](C(N)=O)NC(=O)[C@H]([C@@H](C)O)NC1=O [Compound 268] ([Mpa][Tle]YHT[Trp(7-aza)][Aib]EY[Nva]TC-NH2; linker 1-12 via mXylylene)

Continued, molecule first:

SMILES	IC50 [1]	IC50 [2]
C=CCCC[C@]1(C)NC(=O)[C@H](CCC)NC(=O)[C@H](Cc2ccc(O)cc2)NC(=O)[C@H](C)NC(=O)C(C)(C)NC(=O)[C@H](Cc2c[nH]c3ncccc23)NC(=O)[C@H]([C@@H](C)O)NC(=O)[C@@H]2CCCN2C(=O)[C@H](Cc2ccc(O)cc2)NC(=O)[C@H](C(C)(C)C)NC(=O)[C@@H](NC(C)=O)CCCC(=O)NCCCC[C@@H](C(N)=O)NC1=O [Compound 053] (Ac-[Aad][Tle]YPT[Trp(7-aza)][Aib]AY[Nva][S5]K-NH2; lactam 1-12)	1 to 21 µM	21000 to 50000 nM
CCC[C@H](NC(=O)[C@@H](NC(=O)[C@@H](NC(=O)[C@H](Cc1ccc(O)cc1)NC(=O)[C@@H]1CSCc2cccc(n2)CSC[C@H](NC(=O)[C@@H](NC(=O)[C@H](CCC)NC(=O)[C@H](CCCCN)NC(C)=O)[C@@H](C)CC)C(=O)N[C@@H](Cc2ccc(O)cc2)C(=O)NCC(=O)NCC(=O)N[C@@H](CC(=O)O)C(=O)N1)[C@@H](C)CC)[C@@H](C)CC)C(N)=O [Compound 055] (Ac-K[Nva]ICYGGDCYII[Nva]-NH2; linker 4-9 via Pyridine(2,6-diCH2))	0.001 to 0.1 µM	100 to 1000 nM
CCC[C@@H]1NC(=O)[C@H](Cc2c[nH]c3ncccc23)NC(=O)[C@H]([C@@H](C)O)NC(=O)[C@@H]2CCCN2C(=O)[C@H](Cc2ccc(O)cc2)NC(=O)[C@H](C(C)(C)C)NC(=O)[C@@H](NC(C)=O)CCCC(=O)NCCCC[C@@H](C(N)=O)NC(=O)[C@H]([C@@H](C)O)NC(=O)[C@H](CCC)NC(=O)[C@@H]2Cc3ccc(OC(C)=O)cc3CN2C(=O)[C@H](C)NC1=O [Compound 074] (Ac-[Aad][Tle]YPT[Trp(7-aza)][Nva]A[X6][Nva]TK-NH2; lactam 1-12)	0.1 to 1 µM	100 to 1000 nM
CCC[C@@H]1NC(=O)[C@H](Cc2ccc(O)cc2)NC(=O)[C@H](CCC(=O)O)NC(=O)[C@H](CCC)NC(=O)[C@H]([C@@H](C)O)NC(=O)[C@H](Cc2c[nH]cn2)NC(=O)[C@H](Cc2ccc(O)cc2)NC(=O)[C@H](C(C)(C)C)NC(=O)CCSCc2ccc(cc2)CSC[C@@H](C(N)=O)NC(=O)[C@H]([C@@H](C)O)NC1=O [Compound 251] ([Mpa][Tle]YHT[Nva]EY[Nva]TC-NH2; linker 1-11 via pXylylene)	50 to 100 µM	
CCC[C@@H]1NC(=O)[C@H](Cc2c[nH]c3ncccc23)NC(=O)[C@H]([C@@H](C)O)NC(=O)[C@H](Cc2c[nH]cn2)NC(=O)[C@H](Cc2ccc(O)cc2)NC(=O)[C@H](C(C)(C)C)NC(=O)CCSCc2cccc(c2)CSC[C@@H](C(N)=O)NC(=O)[C@H]([C@@H](C)O)NC(=O)[C@H](CCC)NC(=O)[C@H](Cc2ccc3[nH]ncc3c2)NC(=O)[C@H](CCC(=O)O)NC1=O [Compound 257] ([Mpa][Tle]YHT[Trp(7-aza)][Nva]E[X8][Nva]TC-NH2; linker 1-12 via mXylylene)	50 to 100 µM	
CCC[C@H](NC(C)=O)C(=O)N[C@H]1CSCc2cccc(c2)CSC[C@@H](C(N)=O)NC(=O)[C@H]([C@@H](C)O)NC(=O)[C@H](CCC)NC(=O)[C@H](Cc2ccc(O)cc2)NC(=O)[C@H](C)NC(=O)[C@H](CCC)NC(=O)[C@H](Cc2c[nH]c3ncccc23)NC(=O)[C@H]([C@@H](C)O)NC(=O)[C@H](Cc2cnc[nH]2)NC(=O)[C@H](Cc2ccc(O)cc2)NC(=O)[C@H](C(C)(C)C)NC1=O [Compound 258] (Ac-[Nva]C[Tle]YHT[Trp(7-aza)][Nva]AY[Nva]TC-NH2; linker 2-13 via mXylylene)	50 to 100 µM	
CCC[C@@H]1NC(=O)[C@H](Cc2ccncc2)NC(=O)[C@H]([C@@H](C)O)NC(=O)[C@H](Cc2c[nH]cn2)NC(=O)[C@H](Cc2ccc(O)cc2)NC(=O)[C@H](C(C)(C)C)NC(=O)CCSCc2cccc(c2)CSC[C@@H](C(N)=O)NC(=O)[C@H]([C@@H](C)O)NC(=O)[C@H](CCC)NC(=O)[C@H](Cc2ccc(O)cc2)NC(=O)[C@H](CCC(=O)O)NC1=O [Compound 270] ([Mpa][Tle]YHT[4Pal][Nva]EY[Nva]TC-NH2; linker 1-12 via mXylylene)	50 to 100 µM	
CCC[C@@H]1NC(=O)[C@H](Cc2ccccn2)NC(=O)[C@H]([C@@H](C)O)NC(=O)[C@H](Cc2c[nH]cn2)NC(=O)[C@H](Cc2ccc(O)cc2)NC(=O)[C@H](C(C)(C)C)NC(=O)CCSCc2cccc(c2)CSC[C@@H](C(N)=O)NC(=O)[C@H]([C@@H](C)O)NC(=O)[C@H](CCC)NC(=O)[C@H](Cc2ccc(O)cc2)NC(=O)[C@H](CCC(=O)O)NC1=O [Compound 271] ([Mpa][Tle]YHT[2Pal][Nva]EY[Nva]TC-NH2; linker 1-12 via mXylylene)	50 to 100 µM	
CCC[C@@H]1NC(=O)[C@H](Cc2cccnc2)NC(=O)[C@H]([C@@H](C)O)NC(=O)[C@H](Cc2c[nH]cn2)NC(=O)[C@H](Cc2ccc(O)cc2)NC(=O)[C@H](C(C)(C)C)NC(=O)CCSCc2cccc(c2)CSC[C@@H](C(N)=O)NC(=O)[C@H]([C@@H](C)O)NC(=O)[C@H](CCC)NC(=O)[C@H](Cc2ccc(O)cc2)NC(=O)[C@H](CCC(=O)O)NC1=O [Compound 272] ([Mpa][Tle]YHT[3Pal][Nva]EY[Nva]TC-NH2; linker 1-12 via mXylylene)	50 to 100 µM	
